In one data set the test system is human erythrocytes. The data set can be described thus: Hemolytic activity (MHC), Protocol B, 18 hours. The following applies: for MHC (μg/ml) hRBC: maximal peptide concentration with no hemolysis after 18 hours. The method in brief:
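Hemolysis of 1% human erythrocytes in phosphate-buffered saline by 2-fold diluted D-peptides, incubated 18 h at 37 °C; hemoglobin release read spectrophotometrically. Value is the maximal peptide concentration producing no hemolysis, relative to erythrocytes without peptide.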

Data set [1] concerns Staphylococcus epidermidis.
A further data set deals with human red blood cells. Description: Hemolysis time study (0-8 hours, 8-500 μg/ml). The following applies: 500 μg/ml, after 1 hour incubation. Here is the method: The percent hemolysis of cells was determined spectrophotometrically by comparison with the complete hemolysis of cells in water.
[…] Peptide samples were diluted 2 fold in order to determine the concentration that produced no hemolysis. […] Hemoglobin release was determined spectrophotometrically at 562 nm. The hemolytic titer was the highest 2-fold dilution of the peptide that still caused release of hemoglobin from erythrocytes. The control for no release of hemoglobin was a sample of 1% erythrocytes without any peptide added. […] Peptide samples were diluted 2 fold in order to determine the concentration that produced no hemolysis. […] Hemoglobin release was determined spectrophotometrically at 570 nm. The hemolytic titer was the highest 2-fold dilution of the peptide that still caused release of hemoglobin from erythrocytes. The control for no release of hemoglobin was a sample of 1% erythrocytes without any peptide added.

The nature of data set [2]: CD temperature denaturation study of peptide V681. Format: physicochemical. The following applies: 50% TFE in 0.05% aq. TFA (pH 2); 50% of α-helical structure denatured. The protocol: We next used temperature profiling during RP-HPLC to determine the self-association ability of the various analogs of V681 which would occur through interaction of the non-polar faces of these amphipathic α-helices. […] In order to investigate the stability of V681 in a hydrophobic environment, we carried out a temperature denaturation study in solution, as monitored by circular dichroism spectroscopy. […]
CD Temperature Denaturation Study of Peptide V681—The native peptide V681 was dissolved in 0.05% aqueous TFA containing 50% TFE, pH 2, loaded into a 0.02 cm fused silica cell and peptide ellipticity scanned from 190 to 250 nm at temperatures of 5, 15, 25, 35, 45, 55, 65 and 80° C. […] ([θ]t−[θ]u)/([θ]5−[θ]u) was calculated and plotted against temperature in order to obtain the thermal melting profiles, where [θ]5 and [θ]u represent the molar ellipticity values for the fully folded and fully unfolded species, respectively. [θ]u was determined in the presence of 8M urea with a value of 1500 deg cm^2 dmol^−1 to represent a totally random coil state (31). The melting temperature (Tm) was calculated as the temperature at which the α-helix was 50% denatured (([θ]t−[θ]u)/([θ]5−[θ]u)=0.5) and the values were taken as a measure of α-helix stability.

The mark [3] stands for this setting: methicillin-resistant clinical strain.
Where [4] appears, read: maximal peptide concentration producing no hemolysis after 18 hours, 37° C.

In brackets after ≈: the same amount, converted by molar mass. Like-named read-outs stand apart in the source and are kept apart here.

As for `CC[C@H](C)[C@H](NC(=O)[C@H](C)NC(=O)[C@H](CCCCN)NC(=O)[C@H](CC(C)C)NC(=O)[C@H](C)NC(=O)[C@@H](NC(=O)[C@H](Cc1c[nH]cn1)NC(=O)[C@H](CC(C)C)NC(=O)[C@@H](NC(=O)[C@@H](NC(=O)[C@H](CCCCN)NC(=O)[C@@H](C)NC(=O)[C@H](C)NC(=O)[C@H](CO)NC(=O)[C@H](CCCCN)NC(=O)[C@H](Cc1ccccc1)NC(=O)[C@@H](NC(=O)[C@H](CCCCN)NC(=O)[C@H](CC(C)C)NC(=O)[C@H](Cc1ccccc1)NC(=O)[C@H](CO)NC(=O)[C@H](CCCCN)NC(=O)[C@H](Cc1c[nH]c2ccccc12)NC(=O)[C@H](CCCCN)NC(C)=O)[C@@H](C)O)[C@@H](C)O)C(C)C)[C@@H](C)O)C(=O)N[C@@H](CO)C(=O)N[C@@H](CO)C(N)=O` [NAD], in the data set with Staphylococcus aureus (setting [3]), the “MIC (μg/ml) S. aureus 623 methR” value was 3.1 µg/mL (≈ 1.06 µM). Moreover, the “MIC (μg/ml) S. aureus 622 wt” value against Staphylococcus aureus (wild type strain) was found to be 1.6 µg/mL (≈ 0.545 µM). For the same compound, in the data set on human erythrocytes, the “Hemolytic activity Fold” value is 4. Besides, the “Hemolytic activity MHC” value in the data set on human erythrocytes (setting [4]) was determined as 31.3 µg/mL; in the data set on human erythrocytes (red cells of human, 18 h) it was 31.3 µg/mL. Moreover, the “MHC (μg/ml) hRBC” value in the data set with human erythrocytes (Table 11) and in the data set on human erythrocytes (Table 12) was 31.3 µg/mL in each case. Besides, the “MIC (μg/ml) B. subtilis C971 wt” value with Bacillus subtilis is 3.1 µg/mL (≈ 1.06 µM). In the data set on Corynebacterium xerosis, the “MIC (μg/ml) C. xerosis C875 wt” value was 1.6 µg/mL (≈ 0.545 µM). Further, the “MIC (μg/ml) S. epidermidis C621 wt” value in data set [1] is 1.6 µg/mL (≈ 0.545 µM).
In the case of `CC[C@H](C)[C@H](NC(=O)[C@H](C)NC(=O)[C@H](CCCCN)NC(=O)[C@H](CC(C)C)NC(=O)[C@H](C)NC(=O)[C@@H](NC(=O)[C@H](Cc1cnc[nH]1)NC(=O)[C@H](CC(C)C)NC(=O)[C@@H](NC(=O)[C@@H](NC(=O)[C@H](CCCCN)NC(=O)[C@H](CCCCN)NC(=O)[C@H](C)NC(=O)[C@H](CO)NC(=O)[C@H](CCCCN)NC(=O)[C@H](Cc1ccccc1)NC(=O)[C@@H](NC(=O)[C@H](CCCCN)NC(=O)[C@H](CC(C)C)NC(=O)[C@H](Cc1ccccc1)NC(=O)[C@H](CO)NC(=O)[C@H](CCCCN)NC(=O)[C@H](Cc1c[nH]c2ccccc12)NC(=O)[C@H](CCCCN)NC(C)=O)[C@@H](C)O)[C@@H](C)O)C(C)C)[C@@H](C)O)C(=O)N[C@@H](CO)C(=O)N[C@@H](CO)C(N)=O` [NKL], the “MIC (μg/ml) S. aureus 622 wt” value in the data set on Staphylococcus aureus was determined as 12.5 µg/mL (≈ 4.18 µM). The “MIC (μg/ml) S. aureus 623 methR” value with Staphylococcus aureus was 12.5 µg/mL (≈ 4.18 µM). The “Hemolytic activity Fold” value with human erythrocytes (fold decrease in hemolytic activity compared to V681, 18 hours) amounted to 32. In addition, the “Hemolytic activity MHC” value in the data set with human erythrocytes (setting [4]) came out at 250.0 µg/mL; with human erythrocytes (maximal peptide concentration showing no hemolysis after 18 hours, hRBC, Table 14) it was 250.0 µg/mL. Also, the “MHC (μg/ml) hRBC” value with human erythrocytes (Table 11) and in the data set with human erythrocytes (Table 12) was 250.0 µg/mL throughout. In addition, the “MIC (μg/ml) B. subtilis C971 wt” value in the data set on Bacillus subtilis came out at 3.1 µg/mL (≈ 1.04 µM). For the same compound, in the data set with Corynebacterium xerosis, the “MIC (μg/ml) C. xerosis C875 wt” value came out at 1.6 µg/mL (≈ 0.535 µM). Further, the “MIC (μg/ml) S. epidermidis C621 wt” value in data set [1] amounted to 6.3 µg/mL (≈ 2.11 µM).
As for `CC[C@H](C)[C@H](NC(=O)[C@H](C)NC(=O)[C@H](CCCCN)NC(=O)[C@H](CC(C)C)NC(=O)[C@H](C)NC(=O)[C@@H](NC(=O)[C@H](Cc1c[nH]cn1)NC(=O)[C@H](CC(C)C)NC(=O)[C@@H](NC(=O)[C@@H](NC(=O)[C@H](CCCCN)NC(=O)[C@@H](NC(=O)[C@H](C)NC(=O)[C@H](CO)NC(=O)[C@H](CCCCN)NC(=O)[C@H](Cc1ccccc1)NC(=O)[C@@H](NC(=O)[C@H](CCCCN)NC(=O)[C@H](CC(C)C)NC(=O)[C@H](Cc1ccccc1)NC(=O)[C@H](CO)NC(=O)[C@H](CCCCN)NC(=O)[C@H](Cc1c[nH]c2ccccc12)NC(=O)[C@H](CCCCN)NC(C)=O)[C@@H](C)O)C(C)C)[C@@H](C)O)C(C)C)[C@@H](C)O)C(=O)N[C@@H](CO)C(=O)N[C@@H](CO)C(N)=O` [Peptide V681, reference compound], the “MIC (μg/ml) S. aureus 623 methR” value with Staphylococcus aureus (setting [3]) turned out to be 6.3 µg/mL (≈ 2.13 µM). Moreover, the “MIC (μg/ml) S. aureus 622 wt” value against Staphylococcus aureus (wild type strain) stood at 3.1 µg/mL (≈ 1.05 µM). Moreover, in the data set with human erythrocytes (setting [4]), the “Hemolytic activity MHC” value turned out to be 7.8 µg/mL. Moreover, the “MHC (μg/ml) hRBC” value in the data set on human erythrocytes (Table 11) and in the data set with human erythrocytes (Table 12) was 7.8 µg/mL each time. In addition, in the data set with Bacillus subtilis, the “MIC (μg/ml) B. subtilis C971 wt” value is 3.1 µg/mL (≈ 1.05 µM). Also, the “MIC (μg/ml) C. xerosis C875 wt” value against Corynebacterium xerosis was determined as 3.1 µg/mL (≈ 1.05 µM). The “MIC (μg/ml) S. epidermidis C621 wt” value in data set [1] amounted to 6.3 µg/mL (≈ 2.13 µM). Further, the “hemolysis of human red blood cells” value in the data set on human red blood cells turned out to be 100%. Moreover, the “transition temperature Tm” value in data set [2] came to 79.3 °C.

(Values after US8252737B2, “Antimicrobial peptides and methods of use” (priority 2004, dated 2012).)
